Assay results from PubChem BioAssay (NCI).
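Method: 48-hour compound exposure of cells in 96-well plates, five concentrations, linear interpolation of endpoints. GI50: concentration for 50% inhibition of growth. At the TGI there is no net growth.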

Tests used:
Assay in all cases: NCI-60 cell line screen, 48 h
ACHN renal = system: ACHN renal
CAKI-1 renal = system: CAKI-1 renal
IGROV1 ovarian = system: IGROV1 ovarian
RPMI-8226 leukemia = system: RPMI-8226 leukemia
SK-MEL-28 melanoma = system: SK-MEL-28 melanoma
SK-OV-3 ovarian = system: SK-OV-3 ovarian
U251 CNS = system: U251 CNS
SR leukemia = system: SR leukemia
UO-31 renal = system: UO-31 renal
HCC-2998 colon = system: HCC-2998 colon

SMILES | TGI (ACHN renal) | TGI (CAKI-1 renal) | TGI (IGROV1 ovarian) | TGI (RPMI-8226 leukemia) | TGI (SK-MEL-28 melanoma) | TGI (SK-OV-3 ovarian) | TGI (U251 CNS) | TGI (SR leukemia) | TGI (UO-31 renal) | TGI (HCC-2998 colon) | GI50 (CAKI-1 renal) | GI50 (HCC-2998 colon) | GI50 (IGROV1 ovarian) | GI50 (RPMI-8226 leukemia) | GI50 (SK-MEL-28 melanoma) | GI50 (SK-OV-3 ovarian) | GI50 (U251 CNS) | GI50 (UO-31 renal)
COC(=O)C1=C(C)NC2(C)OC(C)(O)C(C(C)=O)C12C(C)=O (stereo unspecified) | > 100 µM | > 100 µM | > 100 µM | > 100 µM | > 100 µM | 85.8 µM | > 100 µM |  |  |  |  |  |  |  |  |  |  | 
COc1cc(S(=O)(=O)N/N=C/c2cc(Br)c(O)c(OC)c2)c(OC)cc1NC(C)=O | > 100 µM | > 100 µM | > 100 µM | > 100 µM | > 100 µM | > 100 µM | > 100 µM | > 100 µM | > 100 µM |  |  |  |  |  |  |  |  | 
Cc1ccc(S(=O)(=O)N2CCN(CCO)CCN(S(=O)(=O)c3ccc(C)cc3)CCN(CCO)CC2)cc1 | 90.9 µM | > 100 µM | > 100 µM |  | 30.2 µM |  | 72.3 µM | 27.8 µM | > 100 µM | 29.7 µM |  |  |  |  |  |  |  | 
CC(=O)[C@H]1CCC2[C@@H]3CC=C4C(O)C(OS(=O)(=O)O)CC[C@]4(C)C3CC[C@@]21C (stereo partly specified) |  | > 100 µM | > 100 µM | > 100 µM | > 100 µM | > 100 µM | > 100 µM |  | > 100 µM | > 100 µM |  |  |  |  |  |  |  | 
CN(CCN(C)C(=O)CCn1ccc(=O)[nH]c1=O)C(=O)CCn1ccc(=O)[nH]c1=O | > 100 µM |  | > 100 µM | > 100 µM | > 100 µM |  | > 100 µM | > 100 µM | > 100 µM | > 100 µM |  |  |  |  |  |  |  | 
CC1OC=CC(=O)C1O (stereo unspecified) | > 100 µM |  | > 100 µM |  | > 100 µM | > 100 µM | > 100 µM | > 100 µM | > 100 µM | > 100 µM |  |  |  |  |  |  |  | 
C=C1C(=O)O[C@H]2C3C(=C(C)CC[C@@H]12)C(=O)[C@@H]1OC31C (stereo partly specified) | 8.07 µM | 7.9 µM | 11.8 µM | 3.62 µM | 5.52 µM | 29.4 µM | 26.3 µM |  | 11.1 µM | 29.7 µM |  |  |  |  |  |  |  | 
O=c1/c(=C/c2ccc(-c3ccc(Cl)cc3Cl)o2)sc2n1[C@@H](c1ccc3c(c1)OCO3)C=C(c1cc(F)c(Cl)cc1Cl)N=2 | > 100 µM | > 100 µM | > 100 µM | 88 µM | > 100 µM | 62.1 µM | > 100 µM |  | 95.1 µM |  |  |  |  |  |  |  |  | 
O=C(O)CCCc1ccc2c(c1)CC1(C2)Cc2ccc(CCCC(=O)O)cc2C1 | > 100 µM |  | > 100 µM | > 100 µM |  | > 100 µM | > 100 µM | > 100 µM | > 100 µM | > 100 µM |  |  |  |  |  |  |  | 
CCOC(=O)c1cn(C)nc1N/C(C)=C\C(=O)c1ccccc1 | > 100 µM | > 100 µM | > 100 µM |  | > 100 µM | > 100 µM | > 100 µM | > 100 µM | > 100 µM | > 100 µM |  |  |  |  |  |  |  | 
NC1CCCCC1N.O=S(=O)([O-])CCCN1CCN(CCO)CC1.O=S(=O)([O-])CCCN1CCN(CCO)CC1.[Pt+4] |  | 9.16 µM | > 100 µM | 20.5 µM | 29.8 µM | > 100 µM | > 100 µM |  | > 100 µM | > 63.4 µM | 0.856 µM | 9.55 µM | 8.14 µM | 0.423 µM | 8.22 µM | > 87.2 µM | 14.9 µM | 13.5 µM
Cc1nnc(CC#N)n1NC(=O)CC#N | > 100 µM | > 100 µM | > 100 µM |  | > 100 µM | > 100 µM | > 100 µM | > 100 µM | > 100 µM | > 100 µM |  |  |  |  |  |  |  | 
O=C(NCCCCNCCCNC(=O)OCc1ccccc1)OCc1ccccc1 | > 100 µM |  | 73.9 µM | > 100 µM | 40 µM | > 100 µM | > 100 µM | 92.3 µM | 93.1 µM | 38.7 µM |  |  |  |  |  |  |  | 
O=c1oc2ccccc2c(O)c1Cc1cccc(Cc2c(O)c3ccccc3oc2=O)c1 | > 100 µM | > 100 µM | > 100 µM | > 100 µM | > 100 µM | > 100 µM | > 100 µM |  | > 100 µM | > 100 µM |  |  |  |  |  |  |  | 
CC(=O)O[C@H]1C(=O)[C@@]2(C)C(C(OC(=O)c3ccccc3)[C@]3(O)CC(OC(=O)C(O)C(NC(=O)c4ccccc4)c4ccc(C)cc4)C(C)=C1C3(C)C)[C@]1(OC(C)=O)CO[C@@H]1C[C@@H]2O (stereo partly specified) | > 25 µM | 12.1 µM | 19 µM | 7.56 µM |  | 0.0962 µM | 0.264 µM |  | 11.5 µM |  |  |  |  |  |  |  |  | 
Oc1ccc2ccccc2c1OCc1nnc(CCCCCCCCc2nnc(COc3c(O)ccc4ccccc34)o2)o1 | > 100 µM | > 100 µM | > 100 µM | > 100 µM | > 100 µM | > 100 µM | > 100 µM |  | > 100 µM | > 100 µM |  |  |  |  |  |  |  | 
